Consider twelve compounds from ChEMBL document CHEMBL3044593, “Design, synthesis and anticonvulsant evaluation of novel 8-substituted-4(3H)-quinazolines” (Med Chem Res, 2012).

Series [1] is described as follows: Toxicity in ip dosed Mus musculus (mouse) assessed as mortality. It counts as organism-based. The following applies: in vivo.
The test system of series [2] is Mus musculus. The series can be described thus: Protective index, ratio of TD50 for ip dosed Mus musculus (mouse) to ED50 for protection against pentylenetetrazol-induced seizures in ip dosed mouse. It counts as functional.
Series [3] concerns Mus musculus. The series can be described thus: Anticonvulsant activity in ip dosed Mus musculus (mouse) assessed as protection against pentylenetetrazol-induced seizures administered 30 min prior to seizure induction measured for 60 min. It counts as functional.
In series [4] the test system is Mus musculus. As to the kind of experiment: Anticonvulsant activity in Mus musculus (mouse) assessed as protection against strychnine-induced seizures at 0.5 mmol/kg, ip administered 30 min prior to seizure induction measured for 60 min relative to control. It counts as functional, organism-based.
For series [5], the system named is Mus musculus. The series can be described thus: Anticonvulsant activity in Mus musculus (mouse) assessed as protection against maximal electroshock-induced seizures at 0.5 mmol/kg, ip administered 30 min prior to seizure induction measured for 60 min relative to control. It is filed as functional. For orientation: Protection in the maximal electroshock model is a classic sign of anticonvulsant action.

Series [6] can be described thus: Acute neurotoxicity in ip dosed Mus musculus (mouse) assessed as motor impairment administered 30 min prior to testing measured for 30 secs by chimney test. It counts as toxicity, organism-based. The note with it: in vivo.
Series [7] can be described thus: Therapeutic index, ratio of LD50 for ip dosed Mus musculus (mouse) to ED50 for protection against pentylenetetrazol-induced seizures in ip dosed mouse. It counts as organism-based. The note with it: in vivo, read-out: Ratio LD50/ED50.
Series [8] concerns Mus musculus. As to the kind of experiment: Anticonvulsant activity in Mus musculus (mouse) assessed as protection against picrotoxin-induced seizures at 0.5 mmol/kg, ip administered 30 min prior to seizure induction measured for 60 min relative to control. It is filed as functional, organism-based.
For series [9], the system named is Mus musculus. The series can be described thus: Anticonvulsant activity in Mus musculus (mouse) assessed as protection against pentylenetetrazol-induced seizures at 0.5 mmol/kg, ip administered 30 min prior to seizure induction measured for 60 min relative to control. It is filed as functional.
Series [10] deals with Mus musculus. As to the kind of experiment: Anticonvulsant activity in Mus musculus (mouse) assessed as protection against maximal electroshock-induced seizures at 1.5 mmol/kg, ip administered 30 min prior to seizure induction measured for 60 min relative to control. It counts as functional.
For series [11], the system named is Mus musculus. The series can be described thus: Anticonvulsant activity in Mus musculus (mouse) assessed as protection against pentylenetetrazol-induced seizures at 1.5 mmol/kg, ip administered 30 min prior to seizure induction measured for 60 min relative to control. It is filed as functional.
Series [12] relates to Mus musculus. As to the kind of experiment: Anticonvulsant activity in Mus musculus (mouse) assessed as protection against pentylenetetrazol-induced seizures at 1.4 mmol/kg, ip administered 30 min prior to seizure induction measured for 60 min relative to control. It is filed as functional.
In series [13] the test system is Mus musculus. As to the kind of experiment: Anticonvulsant activity in Mus musculus (mouse) assessed as protection against maximal electroshock-induced seizures at 1.4 mmol/kg, ip administered 30 min prior to seizure induction measured for 60 min relative to control. It is filed as functional.

The source made the active and inactive calls. The calls are words filed in the database; no cut-off is given here.

For orientation: LD50 means the dose at which mortality reaches 50%. Broadly, the ED50 is the dose at which the effect has come halfway, by size or by number of responders. As usually defined, the TD50 is the 50% point of the dose-response relation for the toxic effect studied. Regarding `Cc1ccccc1-n1c(C)nc2c(OCC(=O)NN)cccc2c1=O`, the LD50 in series [1] worked out at 2960 µmol/kg. Further, the “Ratio TD50/ED50” value in the series with Mus musculus [2] was 2.7. In addition, the ED50 in the series on Mus musculus [3] turned out to be 290 µmol/kg. Further, the outcome in the series on Mus musculus [4] and in the series with Mus musculus [8] was inactive. Moreover, the Activity in the series on Mus musculus [5] worked out at 50%; in the series on Mus musculus [9], 100%. The TD50 at 0.5 min in series [6] turned out to be 790 µmol/kg. Moreover, the selectivity ratio in [7] is 10.2.
As for `Cc1ccccc1-n1c(C)nc2c(OCC(=O)NNC(=O)NN)cccc2c1=O`, the outcome in the series with Mus musculus [4] and in the series on Mus musculus [8] was inactive. Besides, the figures for the Activity in the series on Mus musculus [5] and in the series on Mus musculus [9] were 0% and 50%, respectively.
On to `CSC(=S)NNC(=O)COc1cccc2c(=O)n(-c3ccccc3C)c(C)nc12`, for which the LD50 in series [1] came out at 1170 µmol/kg. Also, the ED50 in the series on Mus musculus [3] is 350 µmol/kg. The result with Mus musculus [4] and with Mus musculus [8] was inactive. The Activity in the series on Mus musculus [5] and in the series with Mus musculus [9] was 100% each time. Besides, the TD50 at 0.5 min in [6] worked out at 670 µmol/kg. Moreover, in series [7], the selectivity ratio was found to be 3.34.
Take `COc1ccccc1/C=N\NC(=O)COc1cccc2c(=O)n(-c3ccccc3C)c(C)nc12`: the result with Mus musculus [4] and in the series with Mus musculus [8] was inactive. Further, the Activity worked out at 0% in the series on Mus musculus [5] and 33% in the series with Mus musculus [9].
On to `CCCC(CCC)C(=O)[O-].[Na+]` [VALPROATE SODIUM], for which the LD50 in [1] was found to be 11900 µmol/kg. The Activity with Mus musculus [10] and in the series with Mus musculus [11] was 100% throughout. Further, the ED50 in the series with Mus musculus [3] is 4800 µmol/kg. The TD50 at 0.5 min in series [6] was determined as 9600 µmol/kg.
Regarding `Cc1ccccc1-n1c(C)nc2c(OCC(=O)NNC(N)=O)cccc2c1=O`, the outcome in the series with Mus musculus [4] and with Mus musculus [8] was inactive. In addition, the Activity with Mus musculus [5] was 0%; in the series on Mus musculus [9], 50%.
As to `Cc1ccccc1-n1c(C)nc2c(OCC(=O)N/N=C\c3ccccc3F)cccc2c1=O`, the result in the series with Mus musculus [4] and in the series with Mus musculus [8] was inactive. Also, the Activity is given as 50% in the series on Mus musculus [5] and 66% in the series on Mus musculus [9].
With `Cc1ccccc1-n1c(C)nc2c(OCC(=O)NCCO)cccc2c1=O`, the outcome in the series with Mus musculus [4] and in the series with Mus musculus [8] was inactive. Besides, the Activity turned out to be 0% with Mus musculus [5] and 50% in the series on Mus musculus [9].
In the case of `CCOC(=O)NNC(=O)COc1cccc2c(=O)n(-c3ccccc3C)c(C)nc12`, the LD50 in [1] was found to be 1020 µmol/kg. Further, the ED50 in the series on Mus musculus [3] worked out at 390 µmol/kg. Also, the result in the series with Mus musculus [4] and in the series on Mus musculus [8] was inactive. The Activity with Mus musculus [5] and in the series on Mus musculus [9] was 100% each time. Moreover, the TD50 at 0.5 min in [6] turned out to be 600 µmol/kg. Moreover, the selectivity ratio in [7] came out at 1.51.
Regarding `Cc1ccccc1-n1c(C)nc2ccccc2c1=O` [METHAQUALONE], the ED50 in the series on Mus musculus [3] turned out to be 1400 µmol/kg. Further, the TD50 at 0.5 min in [6] stood at 1600 µmol/kg. Further, in series [7], the selectivity ratio was 1.4. Besides, the Activity in the series on Mus musculus [12] and in the series on Mus musculus [13] was 100% each time.
Turning to `Cc1ccccc1-n1c(C)nc2c(OCC(=O)NNC(=S)NN)cccc2c1=O`, the outcome with Mus musculus [4] and with Mus musculus [8] was inactive. The Activity in the series on Mus musculus [5] worked out at 33%; in the series on Mus musculus [9], 66%.
As to `Cc1ccccc1-n1c(C)nc2c(OCC(=O)N/N=C\c3ccccc3)cccc2c1=O`, the result with Mus musculus [4] and in the series on Mus musculus [8] was inactive. Also, the figures for the Activity in the series on Mus musculus [5] and in the series with Mus musculus [9] were 0% and 50%, respectively.
